Counter-ions that a name gives are not always drawn.
Assay: Solution state stability of the hemi calcium salt of Formula I at various pH conditions
Assay type: physicochemical
Method: Solution state stability studies were performed on 7-[2-(4-fluorophenyl)-5-isopropyl-3-phenyl-4-[(4-hydroxymethylphenylamino) carbonyl]-pyrrol- 1-yl]-3,5-dihydroxy-heptanoic acid by solubilizing the hemi calcium salt of Formula I at a range of pH conditions and storing the solution for one or two weeks under different temperature conditions.

## CC(C)c1c(C(=O)Nc2ccc(CO)cc2)c(-c2ccccc2)c(-c2ccc(F)cc2)n1CCC(O)CC(O)CC(=O)O (centres unmarked) [7-[2-(4-fluorophenyl)-5-isopropyl-3-phenyl-4-[(4-hydroxymethylphenylamino)carbonyl]-pyrrol-1-yl]-3,5-dihydroxy-heptanoic acid]
Conclusion from Table 1, more particularly pH 4.5 to pH 12
  pH at which the compound is stable in solution: ≥ 4.5

## CC(C)c1c(C(=O)Nc2ccc(CO)cc2)c(-c2ccccc2)c(-c2ccc(F)cc2)n1CCC(O)CC(O)CC(=O)O (centres unmarked) [hemi calcium salt of Formula I, 7-[2-(4-fluorophenyl)-5-isopropyl-3-phenyl-4-[(4-hydroxymethylphenylamino)carbonyl]-pyrrol-1-yl]-3,5-dihydroxy-heptanoic acid hemicalcium salt]
pH 2.0 Buffer, 1 week, 2-8 °C
  Drug Content: 0.21 mg/mL
pH 2.0 Buffer, 1 week, 25 °C
  Drug Content: 0.22 mg/mL
pH 2.0 Buffer, 1 week, 50 °C
  Drug Content: 0.14 mg/mL
pH 2.0 Buffer, 2 Weeks, 2-8 °C
  Drug Content: 0.19 mg/mL
pH 2.0 Buffer, 2 Weeks, 25 °C
  Drug Content: 0.18 mg/mL
pH 2.0 Buffer, 2 Weeks, 50 °C
  Drug Content: 0.09 mg/mL
pH 2.0 Buffer, Initial
  Drug Content: 0.42 mg/mL
pH 4.5 Buffer, 1 week, 2-8 °C
  Drug Content: 0.50 mg/mL
pH 4.5 Buffer, 1 week, 25 °C
  Drug Content: 0.50 mg/mL
pH 4.5 Buffer, 1 week, 50 °C
  Drug Content: 0.43 mg/mL
pH 4.5 Buffer, 2 Weeks, 2-8 °C
  Drug Content: 0.50 mg/mL
pH 4.5 Buffer, 2 Weeks, 25 °C
  Drug Content: 0.48 mg/mL
pH 4.5 Buffer, 2 Weeks, 50 °C
  Drug Content: 0.38 mg/mL
pH 4.5 Buffer, Initial
  Drug Content: 0.51 mg/mL
pH 5.5 Buffer, 1 week, 2-8 °C
  Drug Content: 0.50 mg/mL
pH 5.5 Buffer, 1 week, 25 °C
  Drug Content: 0.50 mg/mL
pH 5.5 Buffer, 1 week, 50 °C
  Drug Content: 0.45 mg/mL
pH 5.5 Buffer, 2 weeks, 2-8 °C
  Drug Content: 0.50 mg/mL
pH 5.5 Buffer, 2 weeks, 25 °C
  Drug Content: 0.48 mg/mL
pH 5.5 Buffer, 2 weeks, 50 °C
  Drug Content: 0.40 mg/mL
pH 5.5 Buffer, Initial
  Drug Content: 0.50 mg/mL
pH 7.5 Buffer, 1 week, 2-8 °C
  Drug Content: 0.50 mg/mL
pH 7.5 Buffer, 1 week, 25 °C
  Drug Content: 0.50 mg/mL
pH 7.5 Buffer, 1 week, 50 °C
  Drug Content: 0.45 mg/mL
pH 7.5 Buffer, 2 Weeks, 2-8 °C
  Drug Content: 0.49 mg/mL
pH 7.5 Buffer, 2 Weeks, 25 °C
  Drug Content: 0.49 mg/mL
pH 7.5 Buffer, 2 Weeks, 50 °C
  Drug Content: 0.37 mg/mL
pH 7.5 Buffer, Initial
  Drug Content: 0.50 mg/mL
pH 9.0 Buffer, 1 week, 2-8 °C
  Drug Content: 0.49 mg/mL
pH 9.0 Buffer, 1 week, 25 °C
  Drug Content: 0.49 mg/mL
pH 9.0 Buffer, 1 week, 50 °C
  Drug Content: 0.45 mg/mL
pH 9.0 Buffer, 2 Weeks, 2-8 °C
  Drug Content: 0.45 mg/mL
pH 9.0 Buffer, 2 Weeks, 25 °C
  Drug Content: 0.47 mg/mL
pH 9.0 Buffer, 2 Weeks, 50 °C
  Drug Content: 0.42 mg/mL
pH 9.0 Buffer, Initial
  Drug Content: 0.49 mg/mL
pH 10.0 Buffer, 1 week, 2-8 °C
  Drug Content: 0.49 mg/mL
pH 10.0 Buffer, 1 week, 25 °C
  Drug Content: 0.49 mg/mL
pH 10.0 Buffer, 1 week, 50 °C
  Drug Content: 0.45 mg/mL
pH 10.0 Buffer, 2 Weeks, 2-8 °C
  Drug Content: 0.49 mg/mL
pH 10.0 Buffer, 2 Weeks, 25 °C
  Drug Content: 0.47 mg/mL
pH 10.0 Buffer, 2 Weeks, 50 °C
  Drug Content: 0.44 mg/mL
pH 10.0 Buffer, Initial
  Drug Content: 0.49 mg/mL
pH 12.0 Buffer, 1 week, 2-8 °C
  Drug Content: 0.49 mg/mL
pH 12.0 Buffer, 1 week, 25 °C
  Drug Content: 0.49 mg/mL
pH 12.0 Buffer, 1 week, 50 °C
  Drug Content: 0.45 mg/mL
pH 12.0 Buffer, 2 Weeks, 2-8 °C
  Drug Content: 0.49 mg/mL
pH 12.0 Buffer, 2 Weeks, 25 °C
  Drug Content: 0.48 mg/mL
pH 12.0 Buffer, 2 Weeks, 50 °C
  Drug Content: 0.44 mg/mL
pH 12.0 Buffer, Initial
  Drug Content: 0.49 mg/mL
